Test results from ChEMBL document CHEMBL1151415, “Plant anticancer agents. XXIV. Alkaloid constituents of Simaba multiflora” (1983).
≈ marks a conversion by molar mass, not a printed value. Calls of active or inactive are those of the source. No cut-off for these calls is given here.

Tested on: KB
Test: Cytotoxicity against human KB cells
Assay type: functional
Details: for EC50: read-out: ED50 (the source's name)

Question: For O=c1cc2c3ccccc3n3c(=O)ccc([nH]1)c23, which Activity is on record?
Answer: The Activity was “inactive”.

Question: For COn1c(=O)cc2c3cc(O)ccc3n3c(=O)ccc1c23, which Activity is on record?
Answer: The Activity was “inactive”.

Question: Which EC50 does the source give for O=c1ccc2nccc3c4cc(O)ccc4n1c23 here?
Answer: Its EC50 is 2.2 µg/mL (≈ 9.31 µM).

Question: With COn1c(=O)cc2c3ccccc3n3c(=O)ccc1c23 as the compound, how does the Activity read?
Answer: Its Activity is “inactive”.

Question: With COc1ccc2c(c1)c1ccnc3ccc(=O)n2c31 as the compound, how does the EC50 read?
Answer: The EC50 was 2.1 µg/mL (≈ 8.39 µM).
